Measurements published in ChEMBL document CHEMBL1123591, “Synthetic analogues of tetrahydrobiopterin with cofactor activity for aromatic amino acid hydroxylases” (1987).

Each molecule was assayed on dihydropteridine reductase (assay: Tested in isolated enzyme assay for its cofactor activity against dihydropteridine reductase expressed as relative velocity).
Molecule `CC(O)C(O)C1CNc2nc(N)nc(O)c2N1.Cl.Cl` (centres undefined) has a Relative velocity of 100%. For `CC1(C)CNc2nc(N)nc(O)c2N1`, the Relative velocity was 239%. Molecule `CC(C)(C)OCC1CNc2nc(N)nc(O)c2N1.Cl.Cl` (centres undefined) has a Relative velocity of 222%. Work on `COCC1CNc2nc(N)nc(O)c2N1.Cl.Cl` (centres undefined) yielded a Relative velocity of 421%. `CCCOCC1CNc2nc(N)nc(O)c2N1.Cl.Cl` (centres undefined) showed a Relative velocity of 212%. With `CC1CNc2nc(N)[nH]c(=O)c2N1.Cl.Cl` (centres undefined) the Relative velocity was 216%. Work on `CC(C)OCC1CNc2nc(N)nc(O)c2N1.Cl.Cl` (centres undefined) yielded a Relative velocity of 277%. In the case of `CCOCC1CNc2nc(N)nc(O)c2N1.Cl.Cl` (centres undefined), the Relative velocity is reported as 419%.

What follows are molecules tested on dihydropteridine reductase (assay: Tested in isolated enzyme assay for its cofactor actidihydropteridine reductaseity against dihydropteridine reductase expressed as relatidihydropteridine reductasee dihydropteridine reductaseelocity).
For `CCCCOCC1CNc2nc(N)nc(O)c2N1.Cl.Cl` (centres undefined), the Relative velocity was 283%.
